The values below come from PMC7588042.

A short description of data set [1]: double amidation of dimethyl bis(oxyacetate) diester with alpha,omega-diamine (aminolysis of methyl ester, no additive), 1 bar, 168 h. The conditions noted are these: the molecule shown is the open-chain precursor, MeOH, 30.0 mM, 25.0 °C, 2 steps, scale: mol% diamide.
A short description of data set [2]: double amidation of dimethyl bis(oxyacetate) diester with alpha,omega-diamine (aminolysis of methyl ester, no additive), 10 kbar, 24 h. The following applies: the molecule shown is the open-chain precursor, MeOH, 30.0 mM, 25.0 °C, 2 steps, scale: mol% diamide.

Regarding `COC(=O)COc1ccccc1OCC(=O)NCCCOCCOCCOCCCN` [3{1,3}], the ring closure, monomer to dimer in data set [1] (23-membered ring) was 88; in data set [2] (23-membered ring), 76.

As to `COC(=O)COc1cccc(OCC(=O)NCCOCCN)c1` [3{2,1}], the ring closure, monomer to dimer in data set [1] (16-membered ring) came out at 77; in data set [2] (16-membered ring), 68.5.

Turning to `COC(=O)COc1cccc(OCC(=O)NCCCOCCCCOCCCN)c1` [3{2,2}], the ring closure, monomer to dimer in data set [1] (23-membered ring) came to 85; in data set [2] (23-membered ring), 76.5.

With `COC(=O)COc1ccc(OCC(=O)NCCOCCN)cc1` [3{3,1}], the ring closure, monomer to dimer in data set [1] (17-membered ring) is 33; in data set [2] (17-membered ring), 16.5.

With `COC(=O)COc1ccc(OCC(=O)NCCCOCCCCOCCCN)cc1` [3{3,2}], the ring closure, monomer to dimer amounted to 85 in data set [1] (24-membered ring) and 81 in data set [2] (24-membered ring).

With `COC(=O)COc1cccc(OCC(=O)NCCCOCCOCCOCCCN)c1` [3{2,3}], the figures for the ring closure, monomer to dimer in data set [1] (24-membered ring) and in data set [2] (24-membered ring) were 95 and 78, respectively.

As to `COC(=O)COc1ccc(OCC(=O)NCCCOCCOCCOCCCN)cc1` [3{3,3}], the figures for the ring closure, monomer to dimer in data set [1] (25-membered ring) and in data set [2] (25-membered ring) were 89 and 79, respectively.

In the case of `COC(=O)COc1ccccc1OCC(=O)NCCOCCN` [3{1,1}], the ring closure, monomer to dimer in data set [1] (15-membered ring) was 99.5; in data set [2] (15-membered ring), 95.

Regarding `COC(=O)COc1ccccc1OCC(=O)NCCCOCCCCOCCCN` [3{1,2}], the ring closure, monomer to dimer in data set [1] (22-membered ring) came to 85; in data set [2] (22-membered ring) it was 78.
